From patent US20260373132A1, “PERK INHIBITORHC-5404 IN COMBINATION WITH ANTI-PD-1 ANTIBODY AND/OR AN ANTIANGIOGENETIC AGENT FOR USE IN THE TREATMENT OF CANCER” (HIBERCELL, INC., priority 2022, published 2026) come the findings set out here.

The test system of series [1] is ASNS, CBS and CTH in 786-O tumors. The series can be described thus: ASNS, CBS and CTH in 786-O tumors. The class given is in vivo, mouse. Conditions: HC-5404 treatment (FIG. 29). Here is the method: Samples were put in 500 μL of Novex lysis buffer consisting of 2× Novex Tris-Glycine SDS sample buffer (ThermoFisher LC2676), 1× Phosphatase Inhibitor Cocktail III (Sigma P0044), 1× PhosphataseArrest I (Gbioscience 113P-D), 1×2-mercaptoethanol (Gibco 21985023), 1× Benzonase (EMD Millipore Corp 70746-3), and 1× Protease inhibitor cocktail tablet (Roche/Sigma 11836170001). Samples were homogenized with the Polytron and heated for 10 min at 95 °C. They were then centrifuged at max speed for 10 min and the supernatant was transferred. Protein concentrations of samples were measured using the Pierce 660 nm Protein assay kit (Thermo Scientific 22660) according to the manufacturer's instructions.
Western Blot analysis was performed on the SimpleWestern high-throughput protein analysis platform (ProteinSimple 004-650) according to manufacturer's protocol using a 12-230 kDA Separation Module (ProteinSimple SM-W004) and Total Protein Detection Module (ProteinSimple DM-TP01). Antibodies used were: (Add info for other antibodies used) pPERK (Lilly; 1:50) and PERK (Cell Signaling Technology 5683; 1:200). All protein analytes were normalized to total protein loaded on capillary.
The effect of HC-5404 was further validated in tumors by assessing the response of markers of in vivo PERK inhibition. […]

Series [2] deals with RXF-2540. The series can be described thus: RCC PDX single animal trial, RXF-2540. The class given is in vivo, mouse. Conditions: HC-5404 30 mg/kg PO BID, n=1. An excerpt: (§1) This example investigated the effect of HC-5404 in combination with VEGFR-TKIs in inhibiting tumor growth using 12 RCC PDX tumor models, following procedures analogous to those described above.
(§2) Single animal per group (n=1) trial of animals harboring diverse RCC PDX models were used in this study.

Series [3] has as its system SMTCA75. The series can be described thus: RCC PDX single animal trial, SMTCA75. The class given is in vivo, mouse. The settings on record: HC-5404 30 mg/kg PO BID, n=1.
From the text: as §1, §2

For series [4], the system named is ASNS and PSAT1 in MFE280 tumors. The series can be described thus: ASNS and PSAT1 in MFE280 tumors. The class given is in vivo, mouse. Conditions: 7 days, HC-5404 30 mpk BID.
Series [5] concerns mouse pancreas. The series can be described thus: pancreas histology (pancreatic toxicity). The series is classed as in vivo. Here is the method:
As PERK inhibition has been associated with pancreatic toxicity, pancreas sections were evaluated from mice treated with 30 mg/kg or 100 mg/kg HC-5404. […] Together, these findings further supported the decision to dose at 30 mg/kg HC-5404 in subsequent in vivo studies.

Series [6] can be described thus: mouse plasma pharmacokinetics after single oral administration. The class given is in vivo. The protocol: Initial in vivo studies aimed at understanding the pharmacokinetic and pharmacodynamic (PK/PD) relationship and optimizing the dosing regimen were conducted. HC-5404 was quantified from mouse plasma following a single oral administration (PO) at doses ranging from 3 to 100 mg/kg. […] Mouse plasma protein binding (PPB %) was determined to be 95.6%, which enabled us to calculate the free drug plasma exposure across time (FIG. 18).

The subject of series [7] is myeloid, lymphoid and tumor cells in MB49 model. The series can be described thus: flow cytometry of tumor, lymph node and blood cells in MB49 model. The class given is in vivo, mouse. The settings on record: 10, 30 mg/kg (FIG. 8). Here is the method:
C57BL/6 mice were subcutaneously inoculated with MB49 cells, and treatment started on day 8 post cell inoculation. A group of animals (n=10/group) received either vehicle, HC-5404 (PO, BID) (3 mg/kg, 10 mg/kg, or 30 mg/kg), 5 mg/kg anti-PD-1 antibody (aPD-1) (RMP1-14) (IP, BIW), or the combination of both. At various timepoints, animals were sacrificed, and flow cytometry was performed on blood or single cell suspensions from tumors or lymph nodes (n=6).
Tumor tissue samples were obtained 7 days post treatment (14 days post inoculation). Single cells were prepared by enzymatic digestion of tumor tissues and subsequently analyzed by flow cytometry on a Cytek Aurora. Expression of IFNAR1 (A) and PD-L1 (B) on the myeloid populations and tumors were shown.
Surface calreticulin was analyzed by flow cytometry on MB49 tumor cells d7 post treatment.
Single cell suspensions were washed in PBS twice and then stained with the LIVE/DEAD fixable blue dead cell stain (Invitrogen cat #L23105) at 1:3000 dilution for 30 minutes at 4 °C. […]
LN cells from day 14 post treatment samples were analyzed by flow cytometry. […]
Whole blood was collected on the indicated date post treatment in a MB49 model. IFNAR1 expression was determined by flow cytometry and gated on CD14+ monocytes […]
(A flow cytometer gives signals particle by particle.)

Turning to `Cc1cc(NC(=O)[C@H](O)c2cc(F)cc(F)c2)ccc1-c1cnc(N)c(C(=O)NC(C)C)c1` [HC-5404, (R)-2-amino-5-(4-(2-(3,5-difluorophenyl)-2-hydroxyacetamido)-2-methylphenyl)-N-isopropylnicotinamide], the “accumulation of ASNS, CBS and CTH” value in series [1] was “dose-dependent accumulation of ASNS, CBS and CTH”. Besides, the “antitumor efficacy as monotherapy” value in series [2] and in series [3] was “exhibited antitumor efficacy” throughout. The ASNS entry in series [4] (lenvatinib 10 mpk QD (FIG. 79)) is given as “induces ASNS”. Also, the PSAT1 result in series [4] (lenvatinib 10 mpk QD (FIG. 80)) is on record as “induces”. The “reversibility of histological pancreas changes” value in series [5] (100 mg/kg PO BID, two-week washout) was “reversible with a two-week washout period”. Also, the “histological changes in the pancreas” value in series [5] (30 or 100 mg/kg PO BID, three weeks) is given as “histological changes in the pancreas only in the 100 mg/kg dose”. Further, the “free drug (unbound) plasma exposure at Cmax / 1 h” value in series [6] (PO, 30 mg/kg) is reported as 355 nM. In series [6] (plasma, PO, 30 mg/kg), the concentration at 1 h was 3670 ng/mL. Further, the concentration at 12 h in series [6] (plasma, single PO, 100 mg/kg, read-out: plasma exposure up to 12 h after dosing) was above 3200 ng/mL. Besides, the Tmax in series [6] (plasma, single PO, 3 to 100 mg/kg, read-out: time of Cmax) was below 1 h. In series [6] (single PO, 100 mg/kg), the “unbound plasma concentration at Cmax” value is on record as 1605 nM. The “unbound plasma exposure up to 12 h after dosing” value in series [6] (single PO, 100 mg/kg) was above 311 nM. In series [6] (single PO, 3 to 100 mg/kg), the average half-life turned out to be 2.22 h. For the same compound, the “dose proportionality of exposure” value in series [6] (single PO, up to 100 mg/kg) is “Dose-proportional increases in exposure”. In addition, in series [7], the “effect on IFNAR1 on monocytes in peripheral blood” value is on record as “also detected on monocytes in peripheral blood”.
